# In US20110159515A1, “COMPOSITIONS AND METHODS FOR THE RAPID GROWTH AND DETECTION OF MICROORGANISMS” (SOLUS SCIENTIFIC SOLUTIONS LIMITED, priority 2008, published 2011):
# Tested on: S. aberdeen
# Assay: Direct binding Salmonella assay (chemiluminescence immunosorbent)
structure (smiles),measurement,setting,value
"CCCCCCCCCCCCOS(=O)(=O)[O-].[Na+] [SDS, sodium dodecyl sulphate]","signal, direct binding Salmonella assay","0.3% SDS, conjugate 1:100, 10^4 S. aberdeen, white plate, Lucy I","14,314 ± 617^"
same,"signal, direct binding Salmonella assay","0.3% SDS, conjugate 1:100, 10^5 S. aberdeen, white plate, Lucy I","209,913 ± 40,150"
same,"signal, direct binding Salmonella assay","0.3% SDS, conjugate 1:100, 10^6 S. aberdeen, white plate, Lucy I","352,714 ± 88,260"
same,"signal, direct binding Salmonella assay","0.3% SDS, conjugate 1:100, Peptone, white plate, Lucy I","3,026 ± 473"
same,"signal, direct binding Salmonella assay","0.4% SDS, conjugate 1:100, 2.5 × 10^4 S. aberdeen, white plate, Lucy I","59,399 ± 13,550"
same,"signal, direct binding Salmonella assay","0.4% SDS, conjugate 1:100, 5 × 10^3 S. aberdeen, white plate, Lucy I","25,175 ± 5,025"
same,"signal, direct binding Salmonella assay","0.4% SDS, conjugate 1:100, 5 × 10^4 S. aberdeen, white plate, Lucy I","120,481 ± 16,389"
same,"signal, direct binding Salmonella assay","0.4% SDS, conjugate 1:100, 10^4 S. aberdeen, white plate, Lucy I","29,127 ± 2,516"
same,"signal, direct binding Salmonella assay","0.4% SDS, conjugate 1:100, 10^5 S. aberdeen, white plate, Lucy I","199,287 ± 67,462"
same,"signal, direct binding Salmonella assay","0.4% SDS, conjugate 1:100, 10^6 S. aberdeen, white plate, Lucy I","398,979 ± 44,871"
same,"signal, direct binding Salmonella assay","0.4% SDS, conjugate 1:100, Peptone, white plate, Lucy I","3,499 ± 569"
same,"signal, direct binding Salmonella assay","0.5% (w/v) SDS (first block), conjugate 1:100, 2.5 × 10^4 S. aberdeen, black and white plates",1094 ± 156
same,"signal, direct binding Salmonella assay","0.5% (w/v) SDS (first block), conjugate 1:100, 5 × 10^3 S. aberdeen, black and white plates",623 ± 9
same,"signal, direct binding Salmonella assay","0.5% (w/v) SDS (first block), conjugate 1:100, 5 × 10^4 S. aberdeen, black and white plates","1,826 ± 166"
same,"signal, direct binding Salmonella assay","0.5% (w/v) SDS (first block), conjugate 1:100, 10^4 S. aberdeen, black and white plates",796 ± 23
same,"signal, direct binding Salmonella assay","0.5% (w/v) SDS (first block), conjugate 1:100, 10^5 S. aberdeen, black and white plates","2,259 ± 103"
same,"signal, direct binding Salmonella assay","0.5% (w/v) SDS (first block), conjugate 1:100, 10^6 S. aberdeen, black and white plates","16,959 ± 360^"
same,"signal, direct binding Salmonella assay","0.5% (w/v) SDS (first block), conjugate 1:100, Peptone, black and white plates",705 ± 97
same,"signal, direct binding Salmonella assay","0.5% (w/v) SDS, conjugate 1:50, Peptone, black and white plate, tube luminometer",1198 ± 112
same,"signal, direct binding Salmonella assay","0.5% (w/v) SDS, conjugate 1:50, S. aberdeen 2.5 × 10^4, black and white plate, tube luminometer",6697 ± 1676
same,"signal, direct binding Salmonella assay","0.5% (w/v) SDS, conjugate 1:50, S. aberdeen 5 × 10^3, black and white plate, tube luminometer",1622 ± 21
same,"signal, direct binding Salmonella assay","0.5% (w/v) SDS, conjugate 1:50, S. aberdeen 5 × 10^4, black and white plate, tube luminometer","12,231 ± 723^"
same,"signal, direct binding Salmonella assay","0.5% (w/v) SDS, conjugate 1:50, S. aberdeen 10^4, black and white plate, tube luminometer",3199 ± 735
same,"signal, direct binding Salmonella assay","0.5% (w/v) SDS, conjugate 1:50, S. aberdeen 10^5, black and white plate, tube luminometer","22,245 ± 529^"
same,"signal, direct binding Salmonella assay","0.5% (w/v) SDS, conjugate 1:50, S. aberdeen 10^6, black and white plate, tube luminometer","59,070 ± 1216"
same,"signal, direct binding Salmonella assay","0.5% SDS (second block), conjugate 1:100, 2.5 × 10^4 S. aberdeen, black and white plates","1,265 ± 46^"
same,"signal, direct binding Salmonella assay","0.5% SDS (second block), conjugate 1:100, 5 × 10^3 S. aberdeen, black and white plates",748 ± 4
same,"signal, direct binding Salmonella assay","0.5% SDS (second block), conjugate 1:100, 10^4 S. aberdeen, black and white plates",908 ± 10
same,"signal, direct binding Salmonella assay","0.5% SDS (second block), conjugate 1:100, 10^5 S. aberdeen, black and white plates","3,947 ± 494"
same,"signal, direct binding Salmonella assay","0.5% SDS (second block), conjugate 1:100, 10^6 S. aberdeen, black and white plates","26,621 ± 843^"
same,"signal, direct binding Salmonella assay","0.5% SDS (second block), conjugate 1:100, Peptone, black and white plates",631 ± 38
same,"signal, release and detection of core oligosaccharide","0.5% SDS, 10^1 bacteria (species not given)",9918 relative light units
same,"signal, release and detection of core oligosaccharide","0.5% SDS, 10^2 bacteria (species not given)",9987 relative light units
same,"signal, release and detection of core oligosaccharide","0.5% SDS, 10^3 bacteria (species not given)",30399 relative light units
same,"signal, release and detection of core oligosaccharide","0.5% SDS, 10^5 bacteria (species not given)",959119 relative light units
same,"signal, release and detection of core oligosaccharide","0.5% SDS, 10^6 bacteria (species not given)",884352 relative light units
same,"signal, direct binding Salmonella assay","0.5% SDS, conjugate 1:100, 2.5 × 10^4 S. aberdeen, white plate, Lucy I","95,766 ± 6,186"
same,"signal, direct binding Salmonella assay","0.5% SDS, conjugate 1:100, 5 × 10^3 S. aberdeen, white plate, Lucy I","24,984 ± 1,727"
same,"signal, direct binding Salmonella assay","0.5% SDS, conjugate 1:100, 5 × 10^4 S. aberdeen, white plate, Lucy I","95,766 ± 6,186"
same,"signal, direct binding Salmonella assay","0.5% SDS, conjugate 1:100, 10^4 S. aberdeen, white plate, Lucy I","46,273 ± 2,310"
same,"signal, direct binding Salmonella assay","0.5% SDS, conjugate 1:100, 10^5 S. aberdeen, white plate, Lucy I","166,049 ± 288"
same,"signal, direct binding Salmonella assay","0.5% SDS, conjugate 1:100, 10^6 S. aberdeen, white plate, Lucy I","374,007 ± 24,114"
same,"signal, direct binding Salmonella assay","0.5% SDS, conjugate 1:100, Peptone, black and white plate, tube luminometer",974 ± 107
same,"signal, direct binding Salmonella assay","0.5% SDS, conjugate 1:100, Peptone, white plate, Lucy I","3,103 ± 267"
same,"signal, direct binding Salmonella assay","0.5% SDS, conjugate 1:100, S. aberdeen 2.5 × 10^4, black and white plate, tube luminometer",3933 ± 379
same,"signal, direct binding Salmonella assay","0.5% SDS, conjugate 1:100, S. aberdeen 5 × 10^3, black and white plate, tube luminometer",1209 ± 66
same,"signal, direct binding Salmonella assay","0.5% SDS, conjugate 1:100, S. aberdeen 5 × 10^4, black and white plate, tube luminometer",8721 ± 63
same,"signal, direct binding Salmonella assay","0.5% SDS, conjugate 1:100, S. aberdeen 10^4, black and white plate, tube luminometer",1606 ± 243
same,"signal, direct binding Salmonella assay","0.5% SDS, conjugate 1:100, S. aberdeen 10^5, black and white plate, tube luminometer","15,009 ± 871^"
same,"signal, direct binding Salmonella assay","0.5% SDS, conjugate 1:100, S. aberdeen 10^6, black and white plate, tube luminometer","40,190 ± 783^"
same,"signal, direct binding Salmonella assay","0.5% SDS, conjugate 1:150, Peptone, black and white plate, tube luminometer",998 ± 103
same,"signal, direct binding Salmonella assay","0.5% SDS, conjugate 1:150, S. aberdeen 2.5 × 10^4, black and white plate, tube luminometer",1615 ± 132
same,"signal, direct binding Salmonella assay","0.5% SDS, conjugate 1:150, S. aberdeen 5 × 10^3, black and white plate, tube luminometer",975 ± 42
same,"signal, direct binding Salmonella assay","0.5% SDS, conjugate 1:150, S. aberdeen 5 × 10^4, black and white plate, tube luminometer",6576 ± 549
same,"signal, direct binding Salmonella assay","0.5% SDS, conjugate 1:150, S. aberdeen 10^4, black and white plate, tube luminometer",1415 ± 132
same,"signal, direct binding Salmonella assay","0.5% SDS, conjugate 1:150, S. aberdeen 10^5, black and white plate, tube luminometer","12,817 ± 975^"
same,"signal, direct binding Salmonella assay","0.5% SDS, conjugate 1:150, S. aberdeen 10^6, black and white plate, tube luminometer","31,571 ± 2"
